A short description of experiment [1]: Antiinflammatory activity in human neutrophils assessed as inhibition of fMLP/CB-induced superoxide generation at 10 ug/mL after 5 mins by spectrophotometric analysis relative to control. As to conditions: Neutrophil. In kind it is functional.
Experiment [2] in a line: Antiinflammatory activity in human neutrophils assessed as inhibition of fMLP/CB-induced superoxide generation after 5 mins by spectrophotometric analysis. In kind it is functional, cell-based. The note with it: Neutrophil.
A short description of experiment [3]: Antiinflammatory activity in human neutrophils assessed as inhibition of fMLP/CB-induced elastase release after 5 mins by spectrophotometric analysis. In kind it is functional, cell-based. The note with it: Neutrophil.
Experiment [4] in a line: Antiinflammatory activity in human neutrophils assessed as inhibition of fMLP/CB-induced elastase release at 10 ug/mL after 5 mins by spectrophotometric analysis relative to control. In kind it is functional. As to conditions: Neutrophil.
Experiment [5] has as its system 3T3-L1. The experiment in a line: Potentiation of insulin-stimulated glucose consumption in mouse 3T3L1 cells at 30 ug/mL after 24 hrs. In kind it is functional, cell-based.
Experiment [6] relates to 3T3-L1. The experiment in a line: Potentiation of insulin-stimulated glucose consumption in mouse 3T3L1 cells assessed as glucose concentration in culture medium at 30 ug/mL after 24 hrs (reference value: 427.4 mg/dL). In kind it is functional.
In experiment [7] the test system is 3T3-L1. The experiment in a line: Inhibition of lipid accumulation in mouse 3T3L1 cells at 30 ug/mL after 8 days by Oil red O staining-based microscopic analysis relative to control. In kind it is functional. The note with it: 3T3-L1, 192 h.

The structures appear in SMILES notation. The source made the active and inactive calls. The rule behind the calls is not given here.

Regarding `Cc1cc(O)cc(Oc2cc(C)cc(O)c2)c1` [DIORCINOL], the values for the inhibition at 10 µg/mL in experiment [1] and in experiment [4] were 92% and 39.8%, respectively. Besides, the IC50 is 12.2 µM in experiment [2] and above 10 µg/mL in experiment [3].

Regarding `COC(=O)c1cccc2oc3cc(CO)cc(O)c3c(=O)c12` [SYDOWININ A], the inhibition at 10 µg/mL in experiment [1] was 38.1%; in experiment [4], 28.7%. The IC50 in experiment [2] and in experiment [3] was above 10 µg/mL each time.

For the molecule `CO[C@@](C)(CCCC(C)C)c1ccc(CO)cc1O` [(7S)-(+)-7-O-METHYLSYDONOL], the inhibition at 10 µg/mL came out at 69% in experiment [1] and 29.8% in experiment [4]. Further, the IC50 in experiment [2] was 13.8 µM; in experiment [3], above 10 µg/mL. In addition, the outcome with 3T3-L1 [5] was Active.

Regarding `CNC(=O)c1cc(Oc2ccc(NC(=O)Nc3ccc(Cl)c(C(F)(F)F)c3)cc2)ccn1` [SORAFENIB], the results for the inhibition at 10 µg/mL in experiment [1] and in experiment [4] were 70.9% and 83%, respectively. Also, the IC50 in experiment [2] turned out to be 1.27 µM; in experiment [3] it was 5.62 µM.

In the case of `C/C(=C\CCC(C)C)c1ccc(CO)cc1O`, the inhibition at 10 µg/mL was determined as 97.8% in experiment [1] and 84.3% in experiment [4]. For the same molecule, the IC50 worked out at 6.11 µM in experiment [2] and 8.8 µM in experiment [3].

In the case of `COC(=O)[C@@H]1c2c(oc3cc(CO)cc(O)c3c2=O)C=C[C@H]1O`, the inhibition at 10 µg/mL stood at 102% in experiment [1] and 98.9% in experiment [4]. Moreover, the IC50 worked out at 6 µM in experiment [2] and 6.6 µM in experiment [3].

On to `CC(C)CCC[C@](C)(O)c1ccc(CO)cc1O` [(S)-(+)-SYDONOL], for which the results for the inhibition at 10 µg/mL in experiment [1] and in experiment [4] were 87% and 65.3%, respectively. In addition, the Activity in the experiment on 3T3-L1 [6] turned out to be 324.6 mg/dL. The IC50 in experiment [2] is 5.23 µM; in experiment [3], 16.4 µM. In the experiment on 3T3-L1 [5], the outcome was Active. Also, in the experiment on 3T3-L1 [7], the inhibition at 30 µg/mL was at most 48%.

Take `C/C(=C\CCC(C)CO)c1ccc(CO)cc1O` (stereo unspecified): the inhibition at 10 µg/mL in experiment [1] came out at 71.7%; in experiment [4] it was 6.68%. Also, the IC50 in experiment [2] was 21.5 µM; in experiment [3], above 10 µg/mL. The outcome with 3T3-L1 [5] was Active.

In the case of `COC(=O)c1c(O)ccc2oc3cc(CO)cc(O)c3c(=O)c12` [SYDOWININ B], the inhibition at 10 µg/mL worked out at 66.2% in experiment [1] and 85% in experiment [4]. In addition, the results for the IC50 in experiment [2] and in experiment [3] were 21.2 µM and 12.6 µM, respectively.

On to `CC(C)CCC[C@](C)(O)c1ccc(C(=O)O)cc1O`, for which the inhibition at 10 µg/mL stood at 60.2% in experiment [1] and 2.56% in experiment [4]. Besides, the Activity in the experiment with 3T3-L1 [6] amounted to 381.4 mg/dL. Moreover, the IC50 in experiment [2] was 27.8 µM; in experiment [3] it was above 10 µg/mL.

The record behind these values is ChEMBL document CHEMBL2396565, “An epigenetic modifier enhances the production of anti-diabetic and anti-inflammatory sesquiterpenoids from Aspergillus sydowii” (Bioorg Med Chem, 2013).
